Reference: patent US10604741B2, “Compositions and methods for enhancing virus replication” (TURNSTONE LIMITED PARTNERSHIP, priority 2013, dated 2020)
Read-outs that look alike come from different tables or passages of the source.

Key:
VSVΔ51 in 786-0 cells [1] = assay type: cell-based, human
VSVΔ51 in OVCAR8 cells = assay type: cell-based, human; details: 24 hours
VSVΔ51 in WI38 cells = assay type: cell-based, human; details: 24 hours
VSVΔ51 in CT26 cells = assay type: cell-based, mouse; details: 24 hours
VSVΔ51 in GM38 cells = assay type: cell-based, human; details: 24 hours
VSVΔ51 in 786-0 cells [2] = assay type: cell-based, human; details: 24 hours
VSV in 786-0 cells = assay type: cell-based, human; details: 24 hours
MG1 in 786-0 cells = assay type: cell-based, human; details: 24 hours
JX594-GFP in 786-0 cells [3] = assay type: cell-based, human; details: 48 hours
Reovirus in 786-0 cells = assay type: cell-based, human; details: 48 hours
HSV-1 in 786-0 cells = assay type: cell-based, human; details: 48 hours
VSVΔ51 in 786-0 tumors [4] = assay type: cell-based, SCID mice
VSVΔ51 in MiaPaca tumors [5] = assay type: cell-based, SCID mice
VSVΔ51 in MiaPaca tumors [6] = assay type: in vivo, SCID mice; details: 72 hours
VSVΔ51 in OVCAR8 tumors = system: VSVΔ51 in OVCAR8 tumors; parameters: species or system SCID mice; details: mouse, in vivo, iv
VSVΔ51 in 786-0 tumors [7] = system: VSVΔ51 in 786-0 tumors; parameters: species or system SCID mice; details: mouse, in vivo, iv
[8] = system: human H1N1 Influenza A strain FM/1/47 in MRC5 cells; test: Influenza A titers in MRC5 cells treated with FGF2, nucleoprotein ELISA; assay type: cell-based; details: FGF2 100 ng/ml, serum free media; MOI 0.05 or 0.1; FIG. 21
Procedure: MRC5 cells were treated with 100 ng/ml FGF2, 100 ng/ml leptin, or mock treated, in serum free media.
48 hours later, cells were infected with the human H1N1 Influenza A strain FM/1/47 at MOI 0.05 or 0.1, as indicated, in the presence of 1 μg/ml TPCK trypsin. 48 h (MOI 0.1) or 72 h (MOI 0.05) later, supernatants from triplicate wells were collected and pooled. Viral titers were obtained by ELISA for Influenza A nucleoprotein. The resulting titers are illustrated in FIG. 21.

[9] = system: Measles virus (Edmonston strain) in WI38 cells; test: Measles virus titers in WI38 cells treated with FGF2, plaque assay; assay type: cell-based, human; details: FGF2 100 ng/ml, serum free media; MOI 0.1; 48 hours; FIG. 22
Procedure: WI38 cells were treated with 100 ng/ml FGF2, or mock treated, in serum free media.
24 hours later, cells were infected with Measles virus (Edmonston strain) at an MOI 0.1. 48 hours later, supernatants were collected and virus titration was performed by plaque assay in Vero cells. The resulting titers are illustrated in FIG. 22.

VSVΔ51 in MC38 cells = assay type: cell-based, mouse; details: 48 hours
[10] = Enhancement of virus replication, test not described; details: no test details given
JX594-GFP in 786-0 cells [11] = assay type: cell-based, human

FGF2: recombinant human FGF2 protein; amino acid sequence shown in SEQ ID NO: 9
rate of production of VSVΔ51 compared to untreated 786-0 cells (VSVΔ51 in 786-0 cells [1]): increased
FGF2 concentration at which enhanced VSVΔ51 replication is seen (VSVΔ51 in 786-0 cells [1]; 24 hours): ≤ 20 ng/mL
total PFU/mL, fold higher than untreated or FGF1-treated cells (VSVΔ51 in 786-0 cells [1]; 24 hours): at least 15 fold
virus replication vs untreated cells (VSVΔ51 in 786-0 cells [1]; 24 hours): enhanced virus replication
pfu/ml in cell associated supernatants (VSVΔ51 in 786-0 cells [1]; after 6 hours): about 1E2 pfu/ml
plaque forming units/mL in cell associated supernatants (VSVΔ51 in 786-0 cells [1]; after 48 hours): about 5E6 pfu/mL
total PFU/mL, fold higher than untreated or FGF1-treated cells (VSVΔ51 in OVCAR8 cells): at least 15 fold
total PFU/mL, fold higher than untreated or FGF1-treated cells (VSVΔ51 in WI38 cells): at least 15 fold
total PFU/mL, fold higher than untreated or FGF1-treated cells (VSVΔ51 in CT26 cells): at least 15 fold
effect on virus replication (VSVΔ51 in GM38 cells): did not significantly affect virus replication
virus titers, fold higher compared to control (untreated and FGF1-treated) cells (VSVΔ51 in 786-0 cells [2]): 10 fold
virus replication vs untreated cells (VSV in 786-0 cells): enhanced virus replication
virus replication vs untreated cells (MG1 in 786-0 cells): enhanced virus replication
virus replication vs untreated cells (JX594-GFP in 786-0 cells [3]): enhanced virus replication
virus replication vs untreated cells (Reovirus in 786-0 cells): enhanced virus replication
virus replication vs untreated cells (HSV-1 in 786-0 cells): enhanced virus replication
ex-vivo virus infection and GFP expression, fluorescent pictures (VSVΔ51 in 786-0 tumors [4]): increased ex-vivo virus infection and transgene protein expression (GFP)
ex vivo virus production (virus titers) (VSVΔ51 in 786-0 tumors [4]; 48 hours): enhancement of ex vivo virus production
ex-vivo virus infection and GFP expression, fluorescent pictures (VSVΔ51 in MiaPaca tumors [5]): increased ex-vivo virus infection and transgene protein expression (GFP)
ex vivo virus production (virus titers) (VSVΔ51 in MiaPaca tumors [5]; 48 hours): enhancement of ex vivo virus production
VSVΔ51 titers in tumors (VSVΔ51 in MiaPaca tumors [6]): enhanced virus replication
VSVΔ51 titers in tumors (VSVΔ51 in OVCAR8 tumors): enhanced virus replication
VSVΔ51 titers in tumors (VSVΔ51 in 786-0 tumors [7]): enhanced virus replication
influenza viral replication (viral titers) [8]: Enhanced Viral Replication
measles viral replication (virus titers) [9]: Enhanced Viral Replication
Virus titre (VSVΔ51 in MC38 cells): 7.73e6 ± 9.8e5 pfu/mL

SEQ ID NO: 14: human recombinant FGF2 protein (Accession: # P09038)
virus replication [10]: enhance virus replication

B1: mFGF2: recombinant murine FGF2 protein; amino acid sequence shown in SEQ ID NO: 11 (protein)
chain: MAASGITSLPALPEDGGAAFPPGHFKDPKRLYCKNGGFFLRIHPDGRVDGVREKSDPHVKLQLQAEERGVVSIKGVCANRYLAMKEDGRLLASKCVTEECFFFERLESNNYNTYRSRKYSSWYVALKRTGQYKLGSKTGPGQKAILFLPMSAKS
modifications: recombinant mouse protein
Average of pixel intensity (JX594-GFP in 786-0 cells [11]): 24.90
Relative pixel intensity increase (JX594-GFP in 786-0 cells [11]): 4.37
Average of pixel intensity (JX594-GFP in 786-0 cells [11]; after 48 hours): 24.90
Relative pixel intensity increase (JX594-GFP in 786-0 cells [11]; after 48 hours): 4.37
Virus titre (VSVΔ51 in MC38 cells): 8.20e6 ± 1.1e6 pfu/mL
